Laboratory results taken from paper PMC3793977, “High-Throughput Screening (HTS) and Hit Validation to Identify Small Molecule Inhibitors with Activity against NS3/4A proteases from Multiple Hepatitis C Virus Genotypes” (PLoS ONE, 2013).
“Also recorded” adds a separate entry of the source.

Tests used:
[1] = target: T1, full-length NS3/4A protease (genotype 1b) (Hepatitis C virus genotype 1b, UniProt Q9WMX2); test: biochemical; conditions: for IC50: purified full-length NS3/4A, genotype 1b wild-type, read-out: IC50 Full-length NS3/4A; for inhibitory activity (SAR, in words): preliminary SAR of compound 12 analogues; for inhibition at 50 µM: read-out: percent inhibition at 50 µM compound concentration
T1 construct: wild-type HCV NS3 (HCV polyprotein residues 1027–1657); His-tag (N); made in house
T1 sequence (Q9WMX2 1658-1711): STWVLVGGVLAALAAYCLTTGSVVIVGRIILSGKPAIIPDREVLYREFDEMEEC
T1 sequence (Q9WMX2 1027-1657): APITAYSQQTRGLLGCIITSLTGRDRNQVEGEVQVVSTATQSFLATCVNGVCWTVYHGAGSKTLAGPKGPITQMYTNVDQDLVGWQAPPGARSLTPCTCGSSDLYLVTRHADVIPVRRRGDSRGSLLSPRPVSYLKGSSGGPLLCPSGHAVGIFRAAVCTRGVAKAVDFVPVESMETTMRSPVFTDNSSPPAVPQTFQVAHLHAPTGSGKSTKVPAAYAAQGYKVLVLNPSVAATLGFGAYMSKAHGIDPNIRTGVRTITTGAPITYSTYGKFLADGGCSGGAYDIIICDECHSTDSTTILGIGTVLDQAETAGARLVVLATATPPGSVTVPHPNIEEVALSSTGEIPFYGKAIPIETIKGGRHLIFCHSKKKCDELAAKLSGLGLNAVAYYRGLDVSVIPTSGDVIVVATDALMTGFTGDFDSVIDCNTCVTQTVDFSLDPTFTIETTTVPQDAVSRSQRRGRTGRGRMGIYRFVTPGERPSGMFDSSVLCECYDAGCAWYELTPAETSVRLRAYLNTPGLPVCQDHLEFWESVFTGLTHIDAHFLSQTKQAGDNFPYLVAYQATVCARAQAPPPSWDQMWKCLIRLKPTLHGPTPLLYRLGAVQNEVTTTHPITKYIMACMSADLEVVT
Method: All assays were done in duplicate in black 384-well plates (Matrix Technologies). […] 200 nL of 10 mM compound (50 µM final concentrations) were then added and incubated for 5 minutes. Enzyme reactions were initiated with 10 µL of substrate Ac-DE-Dap(QXL520)-EE-Abu-ψ-[COO]AS-C(5-FAMsp)-NH2 (Anaspec) (1 µM final concentration), incubated for 6 minutes, and quenched by 10 µL of 10% SDS as a stop solution. Fluorescence intensity was monitored with a POLARstar OPTIMA microplate reader (BMG LABTECH). Each plate contained a total of 32 positive and 32 negative controls.
A series of compound concentrations (0 to 200 µM final concentration at 2-fold serial dilution) in 100% DMSO were prepared in a 384-well plate. 20 µL of enzyme solution was distributed to wells, and 0.5 µL of varying concentration of compounds were added and incubated for 5 minutes. The enzyme reaction was initiated by adding 5 µL of the substrate, and its activity was continuously monitored for 6 minutes. The IC50 values were calculated by fitting with the Hill equation (1), with OriginPro 8.5 (OriginLab, Inc.) where y is percent inhibition, x is inhibitor concentration, n is the slope of the concentration–response curve (Hill slope), and Vmax is maximal inhibition from two to four independent assays. [drawing 1] (1)

full-length NS3/4A = target: T2, full-length NS3/4A (Hepatitis C virus genotype 1b, UniProt Q9WMX2); test: SPR binding assay (dissociation equilibrium constant KD); conditions: 0–200 µM compound, single referenced with blank (ethanolamine)
T2 construct: wild-type HCV NS3 (HCV polyprotein residues 1027–1657); His-tag (N); made in house
T2 sequence (Q9WMX2 1658-1711): as the sequence (Q9WMX2 1658-1711) above
T2 sequence (Q9WMX2 1027-1657): as the sequence (Q9WMX2 1027-1657) above
Method: The full-length NS3/4A enzyme was prepared in a storage buffer (50 mM HEPES, pH 7.6, 500 mM NaCl, 1 mM DTT, 0.2% Triton X-100, and 20% glycerol) and immobilized on a CM5 sensor chip using standard amine-coupling at 25°C with running buffer HBS-P (10 mM HEPES, 150 mM NaCl, 0.05% surfactant P-20, pH 7.4) using a Biacore T100 instrument. Flow channels 1 and 3 were activated by 1-ethyl-3-(3-dimethylaminopropyl) carbodiimide hydrocholoride (EDC)/N-hydroxy succinimide (NHS) mixture, and the activated surface was blocked by ethanolamine (pH 8.5) as controls. The NS3/4A enzyme was diluted in 10 mM sodium acetate (pH 5.0), and immobilized to flow channel 4 after sensor surface activation with EDC/NHS with a 7 min injection followed by ethanolamine blocking on unoccupied surface area. NS3/4A immobilization level was ∼8,500 response units (RU). An unrelated reference protein (92 kDa) was also immobilized to flow channel 2 as another control to be compared with NS3/4A (74.6 kDa). Fifteen initial hit compounds were prepared as 10 mM DMSO stock solutions. Compound solutions with a series of increasing concentrations (0–200 µM at 1.5-fold dilution) were applied to all four channels at a 10 µL/min flow rate at 25°C. Sensorgrams were analyzed using Biaevaluation software 2.0.3, and response unit difference (ΔRU) values at each concentration were measured during the equilibration phase. Data were either single referenced with a blank (enthanolamine) or double referenced with both blank and reference protein RU values. SigmaPlot 11.0 was used to fit the data to a single rectangular hyperbolic curve to determine KD values. The hyperbola function, y = ymax·x/(KD+x), was used to plot response units and corresponding concentration, where y is the response, ymax is the maximum response, and x is the compound concentration.

SMILES | IC50 [1] [µM] | inhibitory activity (SAR, in words) [1] | inhibition at 50 µM [1] [%] | SPR binding pattern to NS3/4A (full-length NS3/4A)
O=C(Cc1csc(NS(=O)(=O)c2ccccc2)n1)Nc1ccccc1 [Compound 16] | 24.9 | – | – | –
COc1ccc(S(=O)(=O)Nc2nc(CC(=O)Nc3ccc(Br)cc3C)cs2)cc1 [Compound 19] | 6.2 | Moderate activity | – | –
O=C(Cc1csc(NS(=O)(=O)c2ccc(Cl)cc2)n1)Nc1cccc(F)c1 [Compound 23] | 24.2 | Moderate activity | – | –
Cc1ccc(S(=O)(=O)Nc2ccccc2C(=O)Nc2nc3c(C)ccc(C)c3s2)cc1 [Compound 26] | > 100 | – | 0 | –
COc1ccc(S(=O)(=O)Nc2nc(CC(=O)Nc3ccc(Br)c(C)c3)cs2)cc1 [Compound 18] | 14.4 | Moderate activity | – | –
Cc1ccc(S(=O)(=O)Nc2ccccc2C(=O)Nc2nc3c(Br)cccc3s2)cc1 [Compound 15] | – | – | – | lack of binding; also recorded: did not bind
Cc1ccc(NC(=O)Cc2csc(NS(=O)(=O)c3ccc(Cl)cc3)n2)cc1Cl [Compound 25] | > 100 | – | 29.2 | –
O=C(Cc1csc(NS(=O)(=O)c2ccccc2)n1)Nc1cccc(F)c1 [Compound 22] | > 100 | – | 41.7 | –
CCc1ccc(NC(=O)Cc2csc(NS(=O)(=O)c3ccc(C)cc3)n2)cc1 [Compound 21] | > 100 | complete activity loss | 7.2 | –
Cc1ccc(S(=O)(=O)Nc2nc(CC(=O)Nc3ccc(Br)cc3C)cs2)cc1 [Compound 20] | > 100 | complete activity loss | 29.1 | –
Cc1cc(Br)ccc1NC(=O)Cc1csc(NS(=O)(=O)c2ccccc2)n1 [Compound 17] | 23.5 | – | – | –
Cc1cccc(NC(=O)Cc2csc(NS(=O)(=O)c3ccc(Cl)cc3)n2)c1 [Compound 24] | 21.8 | Moderate activity | – | –
Cc1ccc(S(=O)(=O)Nc2ccccc2C(=O)Nc2nc3c(Br)cccc3s2)cc1 [Compound 27] | 15.6 | activity is regained | – | –
